These results are taken from patent US11149011B2, “Compounds and methods for IDO and TDO modulation, and indications therefor” (Plexxikon Inc., priority 2018, dated 2021).

Test [1] concerns the target T1, TDO-expressing HEK293 cell clones (Homo sapiens, UniProt P48775).
T1 construct: expressed in transfected cells; host or cells: HEK293
The test is described as follows: Cell based kynurenine assay, TDO-expressing HEK293 cell clones. The settings on record: HEK293 cells, 24 hours of incubation, geometric mean; read-out: HEK293 TDO Kynurenine GMean IC50 (μM) (Cellular Assay). The essentials: (§1)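 HEK293 clones stably transfected with CMV-driven human IDO1 or human TDO were seeded at 2.5×10^4 cells/well and treated with serial compound dilutions for 24 hours. Supernatant kynurenine was measured. % inhibition versus DMSO-cell and media-only controls was fitted by nonlinear regression to give IC50.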

In test [2] the target is T2, IDO1-expressing HEK293 cell clones (Homo sapiens, UniProt P14902).
T2 construct: expressed in transfected cells; host or cells: HEK293
The test is described as follows: Cell based kynurenine assay, IDO1-expressing HEK293 cell clones. The settings on record: HEK293 cells, 24 hours of incubation, geometric mean; read-out: HEK293 IDO1 Kynurenine GMean IC50 (μM) (Cellular Assay). The essentials: as §1

Test [3] concerns the target T3, IDO1 (Homo sapiens, UniProt P14902).
T3 construct: His tag (N); made in house; host or cells: E. coli
The test is described as follows: IDO enzymatic assay. Type of test: biochemical. Particulars: geometric mean; read-out: IDO1 GMean: IC50 (μM) (Biochemical Assay). A digest of the protocol:
(§2)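 N-His human enzymes from E. coli in 50 mM sodium phosphate pH 6.5 with ascorbate, catalase, Tween 20. IDO: 6 nM enzyme, 10 μM L-Trp, 5 μM methylene blue, 20 min RT; TDO: 1 nM enzyme, 350 μM L-Trp, 0.4 μM methylene blue, 70 min RT. TCA stop, kynurenine measured; IC50 by nonlinear regression.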

In test [4] the target is T4, TDO (Homo sapiens, UniProt P48775).
T4 construct: His tag (N); made in house; host or cells: E. coli
In words: TDO enzymatic assay. The settings on record: geometric mean; read-out: TDO GMean: IC50 (μM) (Biochemical Assay). A digest of the protocol: as §2

T3 sequence (P14902 whole entry): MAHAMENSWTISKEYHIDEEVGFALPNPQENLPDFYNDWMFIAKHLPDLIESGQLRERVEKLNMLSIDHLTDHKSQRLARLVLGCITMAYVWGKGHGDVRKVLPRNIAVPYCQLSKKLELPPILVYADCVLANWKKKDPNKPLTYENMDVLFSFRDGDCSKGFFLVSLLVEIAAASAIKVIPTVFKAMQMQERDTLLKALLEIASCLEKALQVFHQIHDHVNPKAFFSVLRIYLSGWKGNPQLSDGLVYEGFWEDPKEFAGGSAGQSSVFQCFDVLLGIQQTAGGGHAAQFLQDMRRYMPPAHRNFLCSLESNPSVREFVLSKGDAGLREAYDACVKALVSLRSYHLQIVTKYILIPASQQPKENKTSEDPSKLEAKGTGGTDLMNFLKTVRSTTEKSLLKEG
T2 sequence (P14902 whole entry): as above
T4 sequence (P48775 whole entry): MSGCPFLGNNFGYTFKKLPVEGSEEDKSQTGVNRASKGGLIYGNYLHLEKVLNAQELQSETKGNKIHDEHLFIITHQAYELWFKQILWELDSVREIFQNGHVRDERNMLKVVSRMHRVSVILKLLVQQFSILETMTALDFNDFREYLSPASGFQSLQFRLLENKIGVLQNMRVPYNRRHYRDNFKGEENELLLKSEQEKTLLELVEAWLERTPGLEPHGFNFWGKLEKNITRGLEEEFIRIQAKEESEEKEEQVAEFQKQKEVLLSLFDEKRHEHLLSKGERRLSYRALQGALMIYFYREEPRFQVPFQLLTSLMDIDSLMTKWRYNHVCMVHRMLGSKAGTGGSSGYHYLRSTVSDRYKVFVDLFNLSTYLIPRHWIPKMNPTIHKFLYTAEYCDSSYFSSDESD
T1 sequence (P48775 whole entry): as above

Regarding `CNCC(=O)N1CCC(C(C)(C)[C@H](O)c2cc(Cl)cc3cn[nH]c23)CC1` [Compound P-0128, (S)-1-(4-(1-(5-chloro-1H-indazol-7-yl)-1-hydroxy-2-methylpropan-2-yl)piperidin-1-yl)-2-(methylamino)ethan-1-one], the IC50 in test [1], in test [2], in test [3] and in test [4] was 0.0001 to 10 µM in each case.

`CC(C)(C1CCN(C(=O)NC2CCOCC2)CC1)C(O)c1cc(Cl)cc2[nH]ncc12` (centres unmarked) [Compound P-0079, 4-(1-(6-chloro-1H-indazol-4-yl)-1-hydroxy-2-methylpropan-2-yl)-N-(tetrahydro-2H-pyran-4-yl)piperidine-1-carboxamide]: the IC50 in test [1], in test [2], in test [3] and in test [4] was 0.0001 to 10 µM in each case.

On to `CC(C)(C1CCN(C(=O)NCC2(O)CCC2)CC1)[C@H](O)c1cc(Cl)cc2cn[nH]c12` [Compound P-0029, (S)-4-(1-(5-chloro-1H-indazol-7-yl)-1-hydroxy-2-methylpropan-2-yl)-N-((1-hydroxycyclobutyl)methyl)piperidine-1-carboxamide], for which the IC50 in test [1], in test [2], in test [3] and in test [4] was 0.0001 to 10 µM throughout.

For the compound `O=C(NC1CC(F)(F)C1)N1CCC(C(F)(F)C(=O)c2c(F)c(Cl)cc3cn[nH]c23)CC1` [Compound P-0040, 4-(2-(5-chloro-6-fluoro-1H-indazol-7-yl)-1,1-difluoro-2-oxoethyl)-N-(3,3-difluorocyclobutyl)piperidine-1-carboxamide], the IC50 in test [1], in test [2], in test [3] and in test [4] was 0.0001 to 10 µM each time.

As for `CCCNC(=O)N1CCC(C(C)(C)C(O)c2cc(Cl)cc3[nH]ncc23)CC1` (centres unmarked) [Compound P-0077, 4-(1-(6-chloro-1H-indazol-4-yl)-1-hydroxy-2-methylpropan-2-yl)-N-propylpiperidine-1-carboxamide], the IC50 in test [1], in test [2], in test [3] and in test [4] was 0.0001 to 10 µM throughout.

Regarding `CCNC(=O)N1CCC(C(C)(C)C(O)c2cc(Cl)cc3[nH]ncc23)CC1` (centres unmarked) [Compound P-0076, 4-(1-(6-chloro-1H-indazol-4-yl)-1-hydroxy-2-methylpropan-2-yl)-N-ethylpiperidine-1-carboxamide], the 50% inhibitory concentration (IC50) in test [1], in test [2], in test [3] and in test [4] was 0.0001 to 10 µM throughout.

Turning to `CC(C)(C1CCN(C(=O)NCC#N)CC1)C(O)c1cc(Cl)cc2[nH]ncc12` (centres unmarked) [Compound P-0087, 4-(1-(6-chloro-1H-indazol-4-yl)-1-hydroxy-2-methylpropan-2-yl)-N-(cyanomethyl)piperidine-1-carboxamide], the IC50 in test [1] is 0.0001 to 10 µM; in test [2] it was > 10 µM; in test [3], 0.0001 to 10 µM; in test [4] it was 0.0001 to 10 µM.

Consider `CC(C)(C1CCN(C(=O)CCO)CC1)[C@H](O)c1cc(Cl)cc2cn[nH]c12` [Compound P-0134, (S)-1-(4-(1-(5-chloro-1H-indazol-7-yl)-1-hydroxy-2-methylpropan-2-yl)piperidin-1-yl)-3-hydroxypropan-1-one], for which the 50% inhibitory concentration (IC50) in test [1], in test [2], in test [3] and in test [4] was 0.0001 to 10 µM throughout.

In the case of `CC(C)(C1CCN(C(=O)NCc2cncnc2)CC1)[C@H](O)c1cc(Cl)cc2cn[nH]c12` [Compound P-0026, (S)-4-(1-(5-chloro-1H-indazol-7-yl)-1-hydroxy-2-methylpropan-2-yl)-N-(pyrimidin-5-ylmethyl)piperidine-1-carboxamide], the IC50 in test [1], in test [2], in test [3] and in test [4] was 0.0001 to 10 µM in each case.

Take `CC(C)(C)OC(=O)N1CCC(C(C)(C)[C@@H](O)c2cc(Cl)cc3[nH]ncc23)CC1` [Compound P-0144, tert-butyl (R)-4-(1-(6-chloro-1H-indazol-4-yl)-1-hydroxy-2-methylpropan-2-yl)piperidine-1-carboxylate]: the IC50 was 0.0001 to 10 µM in test [1], > 10 µM in test [2], 0.0001 to 10 µM in test [3] and 0.0001 to 10 µM in test [4].

For the compound `C[C@@H](NC(=O)N1CCC(C(C)(C)[C@H](O)c2cc(Cl)cc3cn[nH]c23)CC1)c1ccccn1` [Compound P-0028, 4-((S)-1-(5-chloro-1H-indazol-7-yl)-1-hydroxy-2-methylpropan-2-yl)-N-((R)-1-(pyridin-2-yl)ethyl)piperidine-1-carboxamide], the IC50 in test [1], in test [2], in test [3] and in test [4] was 0.0001 to 10 µM each time.

As for `CC(C)(N)C(=O)N1CCC(C(C)(C)[C@H](O)c2cc(Cl)cc3cn[nH]c23)CC1` [Compound P-0067, (S)-2-amino-1-(4-(1-(5-chloro-1H-indazol-7-yl)-1-hydroxy-2-methylpropan-2-yl)piperidin-1-yl)-2-methylpropan-1-one], the IC50 in test [1], in test [2], in test [3] and in test [4] was 0.0001 to 10 µM throughout.

On to `CC(C)(C1CCN(C(=O)N[C@H]2CCC[C@@H]2O)CC1)[C@H](O)c1cc(Cl)cc2cn[nH]c12` [Compound P-0024, 4-((S)-1-(5-chloro-1H-indazol-7-yl)-1-hydroxy-2-methylpropan-2-yl)-N-((1S,2S)-2-hydroxycyclopentyl)piperidine-1-carboxamide], for which the IC50 in test [1], in test [2], in test [3] and in test [4] was 0.0001 to 10 µM throughout.

With `CC(C)(C1CCN(C(=O)NCCCF)CC1)C(O)c1cc(Cl)cc2[nH]ncc12` (centres unmarked) [Compound P-0090, 4-(1-(6-chloro-1H-indazol-4-yl)-1-hydroxy-2-methylpropan-2-yl)-N-(3-fluoropropyl)piperidine-1-carboxamide], the IC50 was 0.0001 to 10 µM in test [1], > 10 µM in test [2], 0.0001 to 10 µM in test [3] and 0.0001 to 10 µM in test [4].

`CC(C)(O)C(=O)N1CCC(C(C)(C)[C@H](O)c2cc(Cl)cc3cn[nH]c23)CC1` [Compound P-0132, (S)-1-(4-(1-(5-chloro-1H-indazol-7-yl)-1-hydroxy-2-methylpropan-2-yl)piperidin-1-yl)-2-hydroxy-2-methylpropan-1-one]: the IC50 in test [1], in test [2], in test [3] and in test [4] was 0.0001 to 10 µM in each case.

With `CC(C)(C1CCN(C(=O)CC(F)(F)F)CC1)C(O)c1cc(Cl)cc2[nH]ncc12` (centres unmarked) [Compound P-0051, 1-(4-(1-(6-chloro-1H-indazol-4-yl)-1-hydroxy-2-methylpropan-2-yl)piperidin-1-yl)-3,3,3-trifluoropropan-1-one], the IC50 in test [1], in test [2], in test [3] and in test [4] was 0.0001 to 10 µM in each case.

For the compound `CONC(=O)N1CCC(C(C)(C)C(O)c2cc(Cl)cc3[nH]ncc23)CC1` (centres unmarked) [Compound P-0093, 4-(1-(6-chloro-1H-indazol-4-yl)-1-hydroxy-2-methylpropan-2-yl)-N-methoxypiperidine-1-carboxamide], the 50% inhibitory concentration (IC50) in test [1] was 0.0001 to 10 µM; in test [2] it was > 10 µM; in test [3], 0.0001 to 10 µM; in test [4] it was 0.0001 to 10 µM.
